In data set [1] the test system is MCF-7 cells. Briefly: Annexin V-FITC/PI apoptosis assay (flow cytometry). Type of data set: cell-based, human. As to conditions: 48 h. The protocol: (§1) To investigate whether hybrid A8 exerts an antitumor effect on MCF-7 cells by inducing apoptosis, an annexin V-FITC/PI binding assay was performed. MCF-7 cells were treated with vehicle or various concentrations (2.5, 5 and 10 μM) of hybrid A8 for 48 h and were then stained with FITC-annexin V and propidium iodide (PI). The percentages of apoptotic MCF-7 cells were determined by flow cytometry. A8-induced apoptosis in a dose-dependent manner. The percentages of total apoptotic cells (Q1-UR + Q1-LR) were 17.99% (2.5 μM), 35.98% (5 μM) and 48.65% (10 μM). […] In addition, obvious changes in cell morphology were also observed.
Cells apoptosis was assessed using Annexin V/PI staining assay. MCF-7 cells were seeded into 6-well plates for 24 h and then treated with compound A8 at various concentrations (0, 2.5, 5 and 10 μM) for 48 h. Then, cells were collected, washed with 500 μL annexin-binding buffer and stained with 5 μL annexin V-FITC and 5 μL PI for 15 min at 25 °C. After that, the samples were analyzed by flow cytometry (Beckman Coulter cytoFLEX, Brea, CA, USA).
On the technique in general: In flow cytometry, cells or beads pass a laser one at a time.

A further data set has as its target T1, CYP2C9 (Homo sapiens, UniProt P11712).
T1 construct: from tissue; host or cells: human liver microsomes
Kind of data set: CYPs inhibition assay, CYP2C9. It counts as in vitro ADME. As to conditions: human liver microsomes. As to the method: (§2) Finally, we evaluated the interaction between the hybrid A8 and five major metabolic enzymes (CYP1A2, CYP2C9, CYP2C19, CYP2D6 and CYP3A4) in the human body. […] It is also one of the directions for our further transformation and optimization.
(§3) Cytochrome P450 inhibition was evaluated in human liver microsomes (0.253 mg/mL) using five […] (CYP1A2, α-Naphthoflavone; CYP2C9, Sulfaphenazole; CYP2C19, Benzylnirvanol; CYP2D6, Quinidine; and CYP3A4, Ketoconazole.) in the presence of compound A8 (10 μM). After preincubation for 10 min at 37 °C, an NADPH-regenerating system was added. After the mixed system was incubated for 15 min at 37 °C, the reaction was stopped by adding 400 μL of cold stop solution (200 ng/mL tolbutamide and 200 ng/mL labetalol in acetonitrile). Then, the mixture was centrifuged, and the supernatant was analyzed by LC-MS/MS.
(In general: Liver microsomes are a subcellular fraction often used to study metabolism.)

The next data set relates to GPX4. Briefly: Western blotting, GPX4 expression. It counts as cell-based, human. As to conditions: MCF-7, 0, 2.5, 5 and 10 μM, 48 h. The protocol:
We examined the effect of A8 on the expression of GPX4 as well, which is vital in preventing ferroptosis. […] Thus, we concluded that A8 induced the accumulation of ROS and lipid peroxidation and suppressed GSH levels and the expression of GPX4, thereby leading to the induction of ferroptosis.
MCF-7 cells were seeded at a density of 4 × 10^5 cells per well and treated with various concentrations of compound A8 (0, 2.5, 5 and 10 μM) for 48 h. After this, cells were collected and washed twice with ice-cold DPBS. The pellets were resuspended in a total protein extraction buffer (20 mM HEPES, 350 mM NaCl, 20% glycerol, 1% NP-40, 1 mM MgCl2, 0.5 mM EDTA, 0.1 mM EGTA, 0.1 mM DTT, 0.1 mM PMSF) containing a protease inhibitor cocktail and incubated on ice for 30 min with intermittent mixing. The protein concentration was measured using the Bradford reagent (Bio-Rad Laboratories Inc., Hercules, CA, USA). An equal amount (20 μg) of protein was loaded on 10% polyacrylamide gels and transferred to a nitrocellulose membrane. After blocking with 5% skimmed milk, the membrane was incubated at 4 °C overnight with specific primary antibodies. The membrane was washed and incubated at room temperature for 1 h with secondary antibodies conjugated with horseradish peroxidase (HRP). Finally, the immunoblot was developed for visualization using a chemiluminescence kit. […]
(In western blotting, separated proteins are transferred to a membrane and probed.)

The target in the next data set is T2, CYP1A2 (Homo sapiens, UniProt P05177).
T2 construct: from tissue; host or cells: human liver microsomes
T2 sequence (P05177 1-516): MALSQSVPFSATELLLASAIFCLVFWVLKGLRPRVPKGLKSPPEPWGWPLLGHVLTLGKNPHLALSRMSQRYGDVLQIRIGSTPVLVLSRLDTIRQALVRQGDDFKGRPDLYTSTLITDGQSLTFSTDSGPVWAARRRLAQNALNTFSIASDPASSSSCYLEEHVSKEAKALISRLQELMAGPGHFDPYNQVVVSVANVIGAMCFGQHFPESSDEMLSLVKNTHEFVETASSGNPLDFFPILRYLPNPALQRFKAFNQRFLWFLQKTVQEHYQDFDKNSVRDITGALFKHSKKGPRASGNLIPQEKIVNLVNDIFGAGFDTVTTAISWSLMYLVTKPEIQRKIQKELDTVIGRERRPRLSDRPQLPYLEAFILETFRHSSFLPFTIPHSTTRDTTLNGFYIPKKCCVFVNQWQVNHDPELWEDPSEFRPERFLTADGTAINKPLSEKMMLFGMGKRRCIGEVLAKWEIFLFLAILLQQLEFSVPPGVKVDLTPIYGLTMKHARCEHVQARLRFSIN
Briefly: CYPs inhibition assay, CYP1A2. Type of data set: in vitro ADME. The protocol: as §2, §3

Data set [2] deals with MCF-7 cells. Briefly: Intracellular ROS generation (DCFH-DA, flow cytometry). It counts as cell-based, human. As to conditions: MCF-7, 0, 2.5, 5 and 10 μM, 48 h. The protocol:
First, we detected ROS levels using DFCH-DA.
ROS production was detected by using the peroxide-sensitive fluorescent probe DCFH-DA. After treatment with different concentrations of A8 for 48 h, the cells were incubated with 10 μg/mL DCFH-DA at 37 °C for 20 min. Then, cells were harvested. Samples were analyzed by flow cytometry (FACS Calibur, Becton-Dickinson, East Rutherford, NJ, USA).

Data set [3] deals with MCF-7 cells. Briefly: TUNEL staining. It counts as cell-based, human. Conditions: MCF-7, varying concentrations. As to the method: as §1
The slides were immersed in 4% paraformaldehyde (pH 7.4) for 25 min at room temperature and then washed with PBS 3 times. The cells were immersed in 0.1% Triton X-100 solution prepared with PBS for 10 min (operation on ice) and then washed twice with PBS. Dilute 5 × equilibration buffer with deionized water and 100 μL 1 × equilibration buffer was added to each climbing tablet to cover the sample area to be tested, then incubated at room temperature for 15 min. […] The water-absorbent paper was used to absorb the liquid on the climbing sheet, and the sealing liquid containing anti fluorescence quenching agent was used to seal the film, and then the images were observed and collected under the fluorescence microscope.

Consider one compound from article PMC9779727, “Identification of Novel Artemisinin Hybrids Induce Apoptosis and Ferroptosis in MCF-7 Cells” (International Journal of Molecular Sciences, 2022).

T1 sequence (P11712 whole entry): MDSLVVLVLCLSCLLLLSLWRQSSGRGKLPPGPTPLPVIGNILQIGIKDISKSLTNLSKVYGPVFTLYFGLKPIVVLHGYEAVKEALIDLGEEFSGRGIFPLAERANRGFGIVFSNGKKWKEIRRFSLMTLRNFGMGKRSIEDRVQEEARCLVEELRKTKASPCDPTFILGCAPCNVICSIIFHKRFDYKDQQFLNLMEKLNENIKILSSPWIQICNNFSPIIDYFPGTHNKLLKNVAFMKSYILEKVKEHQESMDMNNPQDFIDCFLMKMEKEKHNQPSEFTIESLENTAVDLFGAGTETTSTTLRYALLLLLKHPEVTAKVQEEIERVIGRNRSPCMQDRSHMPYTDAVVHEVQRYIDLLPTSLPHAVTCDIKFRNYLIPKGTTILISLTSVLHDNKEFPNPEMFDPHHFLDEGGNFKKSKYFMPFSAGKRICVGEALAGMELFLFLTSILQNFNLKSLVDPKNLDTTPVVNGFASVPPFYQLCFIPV

What is called Inhibition is how much of the control response was suppressed. A low value points to a response near the control. Turning to `CC1CCC2C(C)C(OC(=O)CCC(=O)NCc3nnc(Nc4ccc(F)cc4F)o3)OC3OC4(C)CCC1C32OO4` (stereo not drawn) [A8], the “percentage of total apoptotic cells (Q1-UR + Q1-LR)” value was found to be 17.99% in the data set with MCF-7 cells [1] (MCF-7, 2.5 μM); 35.98% in the data set with MCF-7 cells [1] (MCF-7, 5 μM); 48.65% with MCF-7 cells [1] (MCF-7, 10 μM). At CYP2C9, the “Inhibition at 10 μM (%) CYP2C9” value is listed as 6.4%. For the same compound, the “GPX4 expression (in words)” value in the data set on GPX4 is listed as “dose-dependent inhibition of GPX4 expression”. Moreover, the “inhibitory effect on CYP1A2 (in words)” value against CYP1A2 (10 μM) is “moderate inhibitory effect”. In addition, the “Inhibition at 10 μM (%) CYP1A2” value on CYP1A2 (human liver microsomes) is 57.1%. In the data set with MCF-7 cells [2], the “ROS fluorescence intensity (in words)” value is “increased significantly with increasing drug concentration”. For the same compound, the “number of cells that emitted red fluorescence (apoptotic cells), TUNEL (in words)” value with MCF-7 cells [3] was “increased as the administration concentration increased”.
